Reference: patent publication US11420973B2, “Amide substituted indole compounds useful as TLR inhibitors” (BRISTOL-MYERS SQUIBB COMPANY, priority 2017, dated 2022)
Where a name gives a salt, the structure may show the parent alone. Read-outs that look alike come from different tables or passages of the source.

Assays:
[1] = molecular target: human TLR7 (Homo sapiens (Human), UniProt Q9NYK1); assay: TLR7 inhibition reporter assay (HEK-Blue SEAP reporter, gardiquimod stimulation); type: cell-based; details: HEK-Blue cells overexpressing human TLR7, gardiquimod 7.5 μM
[2] = molecular target: human TLR8 (Homo sapiens (Human), UniProt Q9NR97); assay: TLR8 inhibition reporter assay (HEK-Blue SEAP reporter, R848 stimulation);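 note: SEAP driven by IFN-β minimal promoter with NF-κB and AP-1 sites, 22 h incubation, compounds 0.05 nM–50 µM, inhibition scaled between agonist plus DMSO and reference inhibitor wells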
[3] = molecular target: human TLR9 (Homo sapiens (Human), UniProt Q9NR96); assay: TLR9 inhibition reporter assay (HEK-Blue SEAP reporter, ODN2006 stimulation);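 note: SEAP reporter under IFN-β minimal promoter with five NF-κB and AP-1 sites, 22 h incubation, compounds 0.05 nM–50 µM, inhibition relative to agonist plus DMSO versus known inhibitor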
Method: HEK-Blue™-cells (Invivogen) overexpressing human TLR7, TLR8 or TLR9 receptors were used for screening inhibitors of these receptors using an inducible SEAP (secreted embryonic alkaline phosphatase) reporter gene under the control of the IFN-β minimal promoter fused to five NF-κB and AP-1-binding sites. Briefly, cells are seeded into Greiner 384 well plates (15000 cells per well for TLR7, 20,000 for TLR8 and 25,000 for TLR9) and then treated with test compounds in DMSO to yield a final dose response concentration range of 0.05 nM-50 μM. After a 30 minute compound pre-treatment at room temperature, the cells are then stimulated with a TLR7 ligand (gardiquimod at a final concentration of 7.5 μM), TLR8 ligand (R848 at a final concentration of 15.9 μM) or TLR9 ligand (ODN2006 at a final concentration of 5 nM) to activate NF-κB and AP-1 which induce the production of SEAP. After a 22 hour incubation at 37° C., 5% CO2, SEAP levels are determined with the addition of HEK-Blue™ Detection reagent (Invivogen), a cell culture medium that allows for detection of SEAP, according to manufacturer's specifications.

[4] = read-out: TLR8 IC50, HEK-Blue cells overexpressing human TLR8, R848 15.9 μM, SEAP reporter
[5] = read-out: TLR9 IC50, HEK-Blue cells overexpressing human TLR9, ODN2006 5 nM, SEAP reporter

Chain of human TLR7 (Q9NYK1 27-1049): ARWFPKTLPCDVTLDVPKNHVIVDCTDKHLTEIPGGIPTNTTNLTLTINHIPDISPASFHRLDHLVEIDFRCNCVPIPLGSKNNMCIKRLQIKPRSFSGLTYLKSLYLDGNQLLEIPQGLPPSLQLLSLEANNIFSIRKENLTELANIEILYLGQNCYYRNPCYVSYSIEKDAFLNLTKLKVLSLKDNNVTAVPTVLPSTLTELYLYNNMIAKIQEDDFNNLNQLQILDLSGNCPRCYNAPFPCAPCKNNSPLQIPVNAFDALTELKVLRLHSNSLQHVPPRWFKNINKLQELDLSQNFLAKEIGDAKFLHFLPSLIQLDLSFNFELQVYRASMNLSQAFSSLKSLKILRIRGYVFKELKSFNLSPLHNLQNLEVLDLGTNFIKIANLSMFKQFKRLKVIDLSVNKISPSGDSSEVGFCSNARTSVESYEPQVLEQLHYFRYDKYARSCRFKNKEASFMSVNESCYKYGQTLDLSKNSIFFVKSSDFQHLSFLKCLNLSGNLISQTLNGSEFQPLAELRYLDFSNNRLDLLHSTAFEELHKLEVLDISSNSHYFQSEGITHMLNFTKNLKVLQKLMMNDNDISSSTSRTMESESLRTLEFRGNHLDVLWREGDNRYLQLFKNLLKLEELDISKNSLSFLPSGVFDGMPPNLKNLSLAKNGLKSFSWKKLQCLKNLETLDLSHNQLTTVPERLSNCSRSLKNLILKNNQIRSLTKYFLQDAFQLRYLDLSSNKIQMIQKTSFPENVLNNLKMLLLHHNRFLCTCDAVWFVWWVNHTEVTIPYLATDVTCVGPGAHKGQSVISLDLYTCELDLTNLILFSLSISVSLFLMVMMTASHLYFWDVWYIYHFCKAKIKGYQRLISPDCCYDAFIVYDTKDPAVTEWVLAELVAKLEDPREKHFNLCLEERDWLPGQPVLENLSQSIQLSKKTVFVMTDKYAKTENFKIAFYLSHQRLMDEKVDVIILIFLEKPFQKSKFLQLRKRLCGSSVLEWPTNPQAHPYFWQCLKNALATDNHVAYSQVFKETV
Chain of human TLR8 (Q9NR97 27-1041): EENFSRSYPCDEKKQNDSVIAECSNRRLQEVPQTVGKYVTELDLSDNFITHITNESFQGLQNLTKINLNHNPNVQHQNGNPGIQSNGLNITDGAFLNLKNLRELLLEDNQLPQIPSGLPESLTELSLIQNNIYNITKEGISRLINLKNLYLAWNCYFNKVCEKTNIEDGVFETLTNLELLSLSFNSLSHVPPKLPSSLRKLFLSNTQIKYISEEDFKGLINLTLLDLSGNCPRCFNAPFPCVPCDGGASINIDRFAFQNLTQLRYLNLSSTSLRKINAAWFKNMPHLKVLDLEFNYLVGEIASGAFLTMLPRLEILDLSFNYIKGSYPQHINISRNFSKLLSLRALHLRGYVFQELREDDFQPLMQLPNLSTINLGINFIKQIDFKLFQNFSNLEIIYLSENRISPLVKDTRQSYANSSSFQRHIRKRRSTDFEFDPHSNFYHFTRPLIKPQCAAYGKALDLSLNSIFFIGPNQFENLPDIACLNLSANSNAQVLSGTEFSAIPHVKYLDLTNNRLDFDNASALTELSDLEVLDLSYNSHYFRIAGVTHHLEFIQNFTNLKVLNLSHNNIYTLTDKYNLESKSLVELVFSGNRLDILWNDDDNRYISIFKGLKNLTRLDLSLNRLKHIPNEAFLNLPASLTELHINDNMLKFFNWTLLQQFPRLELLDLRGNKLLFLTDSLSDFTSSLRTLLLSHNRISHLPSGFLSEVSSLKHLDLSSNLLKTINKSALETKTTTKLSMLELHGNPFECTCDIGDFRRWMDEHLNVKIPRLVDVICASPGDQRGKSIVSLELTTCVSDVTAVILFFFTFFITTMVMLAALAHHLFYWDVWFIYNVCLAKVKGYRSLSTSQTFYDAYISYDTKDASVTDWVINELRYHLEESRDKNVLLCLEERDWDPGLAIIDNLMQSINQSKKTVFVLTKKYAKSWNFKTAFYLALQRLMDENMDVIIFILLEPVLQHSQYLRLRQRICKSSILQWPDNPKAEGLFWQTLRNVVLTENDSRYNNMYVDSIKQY
Chain of human TLR9 (Q9NR96 26-1032): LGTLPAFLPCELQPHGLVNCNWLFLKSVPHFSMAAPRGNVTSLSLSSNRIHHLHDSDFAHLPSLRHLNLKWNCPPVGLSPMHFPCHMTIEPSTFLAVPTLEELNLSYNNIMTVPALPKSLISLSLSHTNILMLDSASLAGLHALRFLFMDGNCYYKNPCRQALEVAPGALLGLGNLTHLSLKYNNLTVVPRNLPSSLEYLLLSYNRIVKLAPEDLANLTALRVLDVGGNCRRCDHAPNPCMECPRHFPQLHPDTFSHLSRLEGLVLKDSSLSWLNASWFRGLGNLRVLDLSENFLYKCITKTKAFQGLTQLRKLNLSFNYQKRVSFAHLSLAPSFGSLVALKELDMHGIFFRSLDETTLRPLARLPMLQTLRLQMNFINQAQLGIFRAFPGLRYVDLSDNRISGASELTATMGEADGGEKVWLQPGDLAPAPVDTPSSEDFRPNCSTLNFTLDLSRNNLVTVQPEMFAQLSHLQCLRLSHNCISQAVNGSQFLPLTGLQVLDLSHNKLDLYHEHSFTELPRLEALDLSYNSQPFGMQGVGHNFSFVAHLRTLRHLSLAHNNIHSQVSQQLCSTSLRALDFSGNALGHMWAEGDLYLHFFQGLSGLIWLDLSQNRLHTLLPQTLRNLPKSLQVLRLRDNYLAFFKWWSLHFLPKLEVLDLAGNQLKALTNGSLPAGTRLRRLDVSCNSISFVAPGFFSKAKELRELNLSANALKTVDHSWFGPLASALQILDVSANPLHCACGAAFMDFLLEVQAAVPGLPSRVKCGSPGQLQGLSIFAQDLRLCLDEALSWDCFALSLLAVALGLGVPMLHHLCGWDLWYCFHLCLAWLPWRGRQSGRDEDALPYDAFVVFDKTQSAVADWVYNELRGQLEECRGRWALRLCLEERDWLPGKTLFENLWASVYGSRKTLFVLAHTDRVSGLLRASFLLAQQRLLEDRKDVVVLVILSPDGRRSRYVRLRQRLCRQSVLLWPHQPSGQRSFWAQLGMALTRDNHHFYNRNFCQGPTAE

Row | Structure (SMILES) | IC50 [1] [µM] | IC50 [2] [µM] | IC50 [3] [µM] | IC50 [2, 4] [µM] | IC50 [3, 5] [µM]
1 | Cc1cc(-c2[nH]c3ccc(C(=O)N4CC5CNCC5C4)cc3c2C(C)C)cc(C)n1 (stereo not drawn) [Example 107, (2-(2,6-dimethylpyridin-4-yl)-3-isopropyl-1H-indol-5-yl)(hexahydropyrrolo[3,4-c]pyrrol-2(1H)-yl)methanone, 2 HCl] | 0.073 | 0.058 | 0.264 | – | –
2 | Cc1cc(-c2[nH]c3ccc(C(C)(C)C(=O)NCC4(O)CN5CCC4CC5)cc3c2C(C)C)ccn1 (stereo not drawn) [Example 174, N-((3-hydroxyquinuclidin-3-yl)methyl)-2-(3-isopropyl-2-(2-methylpyridin-4-yl)-1H-indol-5-yl)-2-methylpropanamide] | 0.054 | – | – | 0.55 | 2.06
3 | Cc1cc(-c2[nH]c3ccc(C(C)(C)C(=O)NC4CCN(C5CCNC5)CC4)cc3c2C(C)C)ccn1 (stereo not drawn) [Example 145, 2-(3-isopropyl-2-(2-methylpyridin-4-yl)-1H-indol-5-yl)-2-methyl-N-(1-(pyrrolidin-3-yl)piperidin-4-yl)propanamide] | 0.554 | – | – | 0.783 | 4.5
4 | CCN(CC)C(=O)C1CCCN(CC(=O)N2CC3CN(C(=O)c4ccc5[nH]c(-c6ccc(OC)c(OC)c6)c(C(C)C)c5c4)CC3C2)C1 (single isomer, unassigned) [Example 10, 1-(2-{5-[2-(3,4-dimethoxyphenyl)-3-(propan-2-yl)-1H-indole-5-carbonyl]-octahydropyrrolo[3,4-c]pyrrol-2-yl}-2-oxoethyl)-N,N-diethylpiperidine-3-carboxamide] | 0.111 | – | – | 0.114 | 7.63
5 | Cc1cc(-c2[nH]c3ccc(C(C)C(=O)N(C)C4CCCNC4)cc3c2C(C)C)ccn1 (stereo not drawn) [Example 210, 2-(3-isopropyl-2-(2-methylpyridin-4-yl)-1H-indol-5-yl)-N-methyl-N-(piperidin-3-yl)propanamide] | 0.28 | – | – | 0.21 | 0.718
6 | Cc1cc(-c2[nH]c3ccc(C(=O)N4CC5CN(C(=O)CN(C)C)CC5C4)cc3c2C(C)C)ccn1 (stereo not drawn) [Example 120, 2-(dimethylamino)-1-(5-(3-isopropyl-2-(2-methylpyridin-4-yl)-1H-indole-5-carbonyl)hexahydropyrrolo[3,4-c]pyrrol-2(1H)-yl)ethan-1-one] | 0.87 | – | – | 0.047 | 0.752
7 | Cc1cc(-c2[nH]c3ccc(C(=O)N4CC5CN(C)CC5C4)cc3c2C(C)C)ccn1 (stereo not drawn) [Example 115, (3-isopropyl-2-(2-methylpyridin-4-yl)-1H-indol-5-yl)(5-methylhexahydropyrrolo[3,4-c]pyrrol-2(1H)-yl)methanone] | 0.147 | – | – | 0.0035 | 1.58
8 | CCc1c(-c2ccc(OC)c(OC)c2)[nH]c2ccc(C(=O)NCc3csc(-c4ccccc4)n3)cc12 [Example 45, 2-(3,4-dimethoxyphenyl)-3-ethyl-N-((2-phenylthiazol-4-yl)methyl)-1H-indole-5-carboxamide] | 2.24 | – | – | 1.04 | > 50
9 | Cc1cc(-c2[nH]c3ccc(C(C)(C)C(=O)NC4CCN(C(C)C)CC4)cc3c2C(C)C)ccn1 [Example 139, 2-(3-isopropyl-2-(2-methylpyridin-4-yl)-1H-indol-5-yl)-N-(1-isopropylpiperidin-4-yl)-2-methylpropanamide] | 0.025 | – | – | 0.154 | 1.14
10 | Cc1cc(-c2[nH]c3ccc(C(C)(C)C(=O)N4CCC(N)CC4)cc3c2C(C)C)ccn1 [Example 153, 1-(4-aminopiperidin-1-yl)-2-(3-isopropyl-2-(2-methylpyridin-4-yl)-1H-indol-5-yl)-2-methylpropan-1-one] | 0.159 | – | – | 0.091 | 0.566
11 | Cc1cc(-c2[nH]c3ccc(C(C)(C)C(=O)N4CCCCC4C4CCNCC4)cc3c2C(C)C)ccn1 (stereo not drawn) [Example 182, 1-([2,4′-bipiperidin]-1-yl)-2-(3-isopropyl-2-(2-methylpyridin-4-yl)-1H-indol-5-yl)-2-methylpropan-1-one] | 0.015 | – | – | 0.081 | 0.716
12 | CC(C)c1c(-c2ccnc(N)c2)[nH]c2ccc(C(=O)NC3CCC(N(C)C)CC3)cc12 (stereo not drawn) [Example 87, 2-(2-aminopyridin-4-yl)-N-(4-(dimethylamino)cyclohexyl)-3-isopropyl-1H-indole-5-carboxamide] | 1.05 | – | – | 0.027 | 0.438
13 | Cc1cc(-c2[nH]c3ccc(C(C)(C)C(=O)N4CC5CNCC5C4)cc3c2C(C)C)ccn1 (stereo not drawn) [Example 183, 1-(hexahydropyrrolo[3,4-c]pyrrol-2(1H)-yl)-2-(3-isopropyl-2-(2-methylpyridin-4-yl)-1H-indol-5-yl)-2-methylpropan-1-one] | 0.03 | – | – | 0.103 | 0.387
14 | Cc1cc(-c2[nH]c3ccc(C(C)(C)C(=O)N4CC5CC4CN5)cc3c2C(C)C)ccn1 (stereo not drawn) [Example 176, 1-(2,5-diazabicyclo[2.2.1]heptan-2-yl)-2-(3-isopropyl-2-(2-methylpyridin-4-yl)-1H-indol-5-yl)-2-methylpropan-1-one] | 0.26 | – | – | 0.211 | 8.39
15 | Cc1cc(-c2[nH]c3ccc(C(C)C(=O)N4CCC(CN)CC4)cc3c2C(C)C)ccn1 (stereo not drawn) [Example 202, 1-(4-(aminomethyl)piperidin-1-yl)-2-(3-isopropyl-2-(2-methylpyridin-4-yl)-1H-indol-5-yl)propan-1-one] | 0.174 | – | – | 0.534 | 1.35
16 | Cc1cc(-c2[nH]c3ccc(C(C)(C)C(=O)NCC4(O)CCN(C)CC4)cc3c2C(C)C)ccn1 [Example 173, N-((4-hydroxy-1-methylpiperidin-4-yl)methyl)-2-(3-isopropyl-2-(2-methylpyridin-4-yl)-1H-indol-5-yl)-2-methylpropanamide] | 0.057 | – | – | 0.15 | 0.691
17 | Cc1cc(-c2[nH]c3ccc(C(=O)N4CCC(N(C)C)CC4)cc3c2C(C)C)cc(C)n1 [Example 104, (4-(dimethylamino)piperidin-1-yl)(2-(2,6-dimethylpyridin-4-yl)-3-isopropyl-1H-indol-5-yl)methanone] | 0.014 | – | – | 0.012 | 0.373
18 | COCCN(C)C(=O)c1ccc2[nH]c(-c3cc(C)nc(C)c3)c(C(C)C)c2c1 [Example 106, 2-(2,6-dimethylpyridin-4-yl)-3-isopropyl-N-(2-methoxyethyl)-N-methyl-1H-indole-5-carboxamide] | 0.051 | – | – | 0.105 | > 50
19 | Cc1cc(-c2[nH]c3ccc(C(C)(C)C(=O)N4CCCC(CN)C4)cc3c2C(C)C)ccn1 (stereo not drawn) [Example 156, 1-(3-(aminomethyl)piperidin-1-yl)-2-(3-isopropyl-2-(2-methylpyridin-4-yl)-1H-indol-5-yl)-2-methylpropan-1-one] | 0.053 | – | – | 0.052 | 0.927

Further lines, results first:

Row | IC50 [1] [µM] | IC50 [2] [µM] | IC50 [3] [µM] | IC50 [2, 4] [µM] | IC50 [3, 5] [µM] | Structure (SMILES)
20 | 2.31 | – | – | 0.858 | > 50 | CCc1c(-c2ccc(OC)c(OC)c2)[nH]c2ccc(C(=O)NC3CCCCCC3)cc12 [Example 20, N-cycloheptyl-2-(3,4-dimethoxyphenyl)-3-ethyl-1H-indole-5-carboxamide]
21 | 1.71 | – | – | 0.277 | > 50 | CCc1c(-c2ccc(OC)c(OC)c2)[nH]c2ccc(C(=O)NCCC(N)=O)cc12 [Example 68, N-(3-amino-3-oxopropyl)-2-(3,4-dimethoxyphenyl)-3-ethyl-1H-indole-5-carboxamide]
22 | 2.5 | – | – | 0.572 | > 50 | CCc1c(-c2ccc(OC)c(OC)c2)[nH]c2ccc(C(=O)NCc3ccco3)cc12 [Example 43, 2-(3,4-dimethoxyphenyl)-3-ethyl-N-(furan-2-ylmethyl)-1H-indole-5-carboxamide]
23 | 0.112 | – | – | 0.013 | 2.19 | CCc1c(-c2ccc(OC)c(OC)c2)[nH]c2ccc(C(=O)N3CCC(N4CCCCC4)CC3)cc12 [Example 56, [1,4′-bipiperidin]-1′-yl(2-(3,4-dimethoxyphenyl)-3-ethyl-1H-indol-5-yl)methanone]
24 | 1.74 | – | – | 0.782 | > 50 | CCc1c(-c2ccc(OC)c(OC)c2)[nH]c2ccc(C(=O)N3CCC[C@H]3COC)cc12 [Example 27, (S)-(2-(3,4-dimethoxyphenyl)-3-ethyl-1H-indol-5-yl)(2-(methoxymethyl)pyrrolidin-1-yl)methanone]
25 | 0.577 | – | – | 0.218 | > 50 | CCc1c(-c2ccc(OC)c(OC)c2)[nH]c2ccc(C(=O)N3CCN(c4ncccn4)CC3)cc12 [Example 57, (2-(3,4-dimethoxyphenyl)-3-ethyl-1H-indol-5-yl)(4-(pyrimidin-2-yl)piperazin-1-yl)methanone]
26 | 0.274 | – | – | 0.175 | 1.22 | CNCCN1CC2CN(C(=O)c3ccc4[nH]c(-c5ccc(OC)c(OC)c5)c(C(C)C)c4c3)CC2C1 (stereo not drawn) [Example 12, (2-(3,4-dimethoxyphenyl)-3-isopropyl-1H-indol-5-yl)(5-(2-(methylamino)ethyl)hexahydropyrrolo[3,4-c]pyrrol-2(1H)-yl)methanone]
27 | 1.66 | – | – | 0.26 | 13.8 | CCc1c(-c2ccc(OC)c(OC)c2)[nH]c2ccc(C(=O)NC[C@@H](F)C(C)(C)O)cc12 [Example 18, (R)-2-(3,4-dimethoxyphenyl)-3-ethyl-N-(2-fluoro-3-hydroxy-3-methylbutyl)-1H-indole-5-carboxamide]
28 | 0.206 | – | – | 0.115 | > 50 | CCc1c(-c2ccc(OC)c(OC)c2)[nH]c2ccc(C(=O)N3CCN(C(=O)c4ccco4)CC3)cc12 [Example 60, (2-(3,4-dimethoxyphenyl)-3-ethyl-1H-indol-5-yl)(4-(furan-2-carbonyl)piperazin-1-yl)methanone]
